Reference: publication PMC8199291 (Molecules, 2021)
Values joined by “and” are separate entries in the source; they are usually repeats but may differ in a detail not shown here. Equal entries are not always repeated. “Also recorded” adds a separate entry of the source. Where two headings read alike, the source gives them in different places.

Tests used:
human FAAH (hFAAH) = biological target: T1, human FAAH (hFAAH) (Homo sapiens, UniProt O00519); assay: FAAH enzyme inhibition assay (Cayman inhibitor screening kit, AMC-arachidonoyl amide, fluorescence); assay type: biochemical; conditions: for FAAH inhibitory activity (in words): in vitro, up to 100 μM
T1 construct: purchased Cayman Item # 10005196
T1 sequence (O00519 1-579): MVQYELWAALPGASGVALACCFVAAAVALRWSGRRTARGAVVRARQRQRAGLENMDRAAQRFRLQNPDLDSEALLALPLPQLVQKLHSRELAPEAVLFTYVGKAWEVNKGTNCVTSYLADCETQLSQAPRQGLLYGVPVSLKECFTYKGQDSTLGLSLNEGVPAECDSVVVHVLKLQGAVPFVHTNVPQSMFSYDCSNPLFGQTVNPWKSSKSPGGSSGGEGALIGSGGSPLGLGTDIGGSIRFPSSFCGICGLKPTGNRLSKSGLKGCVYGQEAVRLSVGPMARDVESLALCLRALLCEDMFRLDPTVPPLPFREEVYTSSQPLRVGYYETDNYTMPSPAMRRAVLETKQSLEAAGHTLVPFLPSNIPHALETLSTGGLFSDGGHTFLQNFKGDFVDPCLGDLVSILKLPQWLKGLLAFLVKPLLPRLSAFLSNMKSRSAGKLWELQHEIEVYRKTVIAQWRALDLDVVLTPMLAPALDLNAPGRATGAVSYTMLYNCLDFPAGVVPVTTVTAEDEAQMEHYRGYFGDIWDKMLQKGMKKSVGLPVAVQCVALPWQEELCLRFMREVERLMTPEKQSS
Procedure: The manufacturer’s protocol was followed to perform the assay. […] AMC-Arachidonoyl amide, at a concentration of 400 μM, was then used as the FAAH substrate. The samples were mixed for 30 s and incubated at 37 °C for 30 min.

human MAGL (hMAGL) = biological target: T2, human MAGL (hMAGL) (Homo sapiens, UniProt Q99685); assay: MAGL enzyme inhibition assay (4-nitrophenylacetate hydrolysis, absorbance 405 nm); assay type: biochemical; conditions: for decrease of MAGL inhibitory activity: relative to the parent compound as worded in the text (disulfiram for 2c, 2d; para substitution of 2h for 2k); for MAGL inhibitory activity (in words): in vitro; on IC50 (µM) ± SE (hMAGL): 250 µM 4-nitrophenylacetate
T2 construct: purchased Reaction Biology Corp
T2 sequence (Q99685 1-303): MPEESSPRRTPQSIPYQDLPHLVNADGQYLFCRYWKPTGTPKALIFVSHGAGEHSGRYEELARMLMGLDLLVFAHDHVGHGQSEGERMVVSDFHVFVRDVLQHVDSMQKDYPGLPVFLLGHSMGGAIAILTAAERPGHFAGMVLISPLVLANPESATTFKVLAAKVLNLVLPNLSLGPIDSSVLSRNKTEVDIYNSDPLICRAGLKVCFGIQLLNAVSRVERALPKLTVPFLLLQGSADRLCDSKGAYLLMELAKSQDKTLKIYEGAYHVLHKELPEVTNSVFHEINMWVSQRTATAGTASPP
Procedure: All of the tested compounds were prepared as 10 mM stock solutions in DMSO. […] The plate was mixed for 30 s and incubated at room temperature for 30 min.

[1] = 10-dose IC50 mode, 3-fold serial dilution, top 100 μM (JZL195 5 μM), 400 μM AMC-arachidonoyl amide, 37 °C 30 min, average of at least two experiments ± SE
[2] = read-out: IC50 (µM) ± SE (hMAGL)
[3] = read-out: IC50 (µM) ± SE (hFAAH)

In the case of CCCCN(CCCC)C(=S)SSC(=S)N(CCCC)CCCC [2c], the IC50 (human FAAH (hFAAH); [1]) is reported as > 100 µM, the “FAAH inhibitory activity (in words)” value (human FAAH (hFAAH)) is reported as “no inhibition” and the IC50 (human MAGL (hMAGL); [2]) is reported as 7.14 ± 0.21 µM. For the same molecule, the “decrease of MAGL inhibitory activity” value (human MAGL (hMAGL)) was “up to 15 fold”.
Work on O=C(Oc1ccc([N+](=O)[O-])cc1)N1CCN(Cc2cccc(Oc3ccccc3)c2)CC1 [JZL-195, reference compound] yielded an IC50 (human FAAH (hFAAH); [1]) of 0.04 ± 0.02 µM.
CC(C)CN(CC(C)C)C(=S)SSC(=S)N(CC(C)C)CC(C)C [2d] was tested, and the IC50 (human FAAH (hFAAH); [1]) was > 100 µM, the “FAAH inhibitory activity (in words)” value (human FAAH (hFAAH)) was “no inhibition” and the “hydrolytic activity of MAGL inhibited by the compound upon addition of dithiothreitol (reversibility of inhibition)” value (human MAGL (hMAGL); absence vs presence of dithiothreitol 10 mM) was “restored”. For the same molecule, the IC50 (human MAGL (hMAGL); [2]) was 13.4 ± 4.79 µM and the “decrease of MAGL inhibitory activity” value (human MAGL (hMAGL)) was “up to 15 fold”.
In the case of CCN(CC)C(=S)SSC(=S)N(CC)CC [2a, Disulfiram, reference compound], the IC50 (human FAAH (hFAAH); [3]) is reported as 36 µM and 36.2 µM and the IC50 (human MAGL (hMAGL); [2]) is reported as 0.95 ± 0.26 µM.
CCN(Cc1ccc(C(=O)O)cc1)C(=S)SSC(=S)N(CC)Cc1ccc(C(=O)O)cc1 [2k] was tested, and the IC50 (human FAAH (hFAAH); [1]) was > 100 µM, the “FAAH inhibitory activity (in words)” value (human FAAH (hFAAH)) was “devoid of anti-FAAH activity” and the IC50 (human MAGL (hMAGL); [2]) was 22.6 ± 16.8 µM.
With CCN(Cc1ccc(F)cc1)C(=S)SSC(=S)N(CC)Cc1ccc(F)cc1 [2i] the IC50 (human FAAH (hFAAH); [1]) was > 100 µM, the “FAAH inhibitory activity (in words)” value (human FAAH (hFAAH)) was “devoid of anti-FAAH activity; also recorded: did not show any inhibitory activity” and the “MAGL inhibitory activity (in words)” value (human MAGL (hMAGL)) was “low micromolar range”. The IC50 (human MAGL (hMAGL); [2]) was 3.58 ± 1.54 µM.
In the case of CCN(CCO)C(=S)SSC(=S)N(CC)CCO [2e], the IC50 (human FAAH (hFAAH); [3]) is reported as 25.4 ± 3.26 µM and the IC50 (human MAGL (hMAGL); [2]) is reported as 0.72 ± 0.2 µM.
In the case of CCN(CCC(=O)O)C(=S)SSC(=S)N(CC)CCC(=O)O [2f], the IC50 (human FAAH (hFAAH); [3]) is reported as 12.8 ± 1.57 µM and the IC50 (human MAGL (hMAGL); [2]) is reported as 0.87 ± 0.21 µM.
With CCOC(=O)CCN(CC)C(=S)SSC(=S)N(CC)CCC(=O)OCC [2g, Bis(N-ethoxycarbonylethylethylthiocarbamoyl)disulphide] the IC50 (human FAAH (hFAAH); [3]) was 10 ± 0.68 µM, the “MAGL inhibitory activity (in words)” value (human MAGL (hMAGL)) was “low micromolar range” and the IC50 (human MAGL (hMAGL); [2]) was 3.53 ± 1.32 µM.
CCN(Cc1ccccc1)C(=S)SSC(=S)N(CC)Cc1ccccc1 [2h] was tested, and the IC50 (human FAAH (hFAAH); [1]) was > 100 µM, the “FAAH inhibitory activity (in words)” value (human FAAH (hFAAH)) was “devoid of anti-FAAH activity” and the IC50 (human MAGL (hMAGL); [2]) was 5.53 ± 2.62 µM.
Molecule CCN(Cc1ccc(O)cc1)C(=S)SSC(=S)N(CC)Cc1ccc(O)cc1 [2j] has an IC50 (human FAAH (hFAAH); [3]) of 38.3 ± 7.96 µM and an IC50 (human MAGL (hMAGL); [2]) of 3.71 ± 1.28 µM.
With S=C(SSC(=S)N(Cc1ccccc1)Cc1ccccc1)N(Cc1ccccc1)Cc1ccccc1 [2m] the IC50 (human FAAH (hFAAH); [1]) was > 100 µM, the “FAAH inhibitory activity (in words)” value (human FAAH (hFAAH)) was “complete loss of FAAH inhibitory activity” and the IC50 (human MAGL (hMAGL)) was 3.58 ± 0.95 µM.
With CCOC(=O)c1ccc(CN(CC)C(=S)SSC(=S)N(CC)Cc2ccc(C(=O)OCC)cc2)cc1 [2l, Bis(N-4-ethoxycarbonylbenzylethylthiocarbamoyl)disulphide] the IC50 (human FAAH (hFAAH); [1]) was > 100 µM, the “FAAH inhibitory activity (in words)” value (human FAAH (hFAAH)) was “devoid of anti-FAAH activity” and the IC50 (human MAGL (hMAGL); [2]) was 5.03 ± 2.35 µM.
In the case of CC(C)N(C(=S)SSC(=S)N(C(C)C)C(C)C)C(C)C [2b], the IC50 (human FAAH (hFAAH); [1]) is reported as > 100 µM and the IC50 (human MAGL (hMAGL); [2]) is reported as 1.89 ± 0.37 µM.
